What was measured:
[1] = target: HCV NS3/4A protease (Hepatitis C virus genotype 1a, UniProt P27958); assay: Inhibition assay (enzymatic assay, depsipeptide substrate hydrolysis); assay type: biochemical; note: full-length NS3 protease 1 nM, 25 µM NS4A cofactor, 0.5 µM substrate
Description: [Landro, 1997 # Biochem 36 9340-9348]. […] The solutions were stored at −20° C. between measurements.
[Liu, 1999 Analytical Biochemistry 267 331-335].

[2] = test system: HCV replicons (NS3-NS5B regions of HCV type 1b) in Huh-7 luc/neo (Huh-Luc) cells; assay: Replicon assay (HCV RNA replication, luciferase read-out); assay type: cell-based; conditions: Hepatitis C virus, Huh-7, 72 h, incubation of three days, luciferase activity
Description: The in vitro antiviral activity against HCV of the compounds of formula (I) was tested in a cellular HCV replicon system based on Lohmann et al. (1999) Science 285:110-113, with the further modifications described by Krieger et al. (2001) Journal of Virology 75: 4614-4624, which is further exemplified in the examples section. This model, while not a complete infection model for HCV, is widely accepted as the most robust and efficient model of autonomous HCV RNA replication currently available. […] It will be appreciated that it is important to distinguish between compounds that specifically interfere with HCV functions from those that exert cytotoxic or cytostatic effects in the HCV replicon model, and as a consequence cause a decrease in HCV RNA or linked reporter enzyme concentration. […]
The replicon cells were plated in 384 well plates in the presence of the test and control compounds which were added in various concentrations. Following an incubation of three days, HCV replication was measured by assaying luciferase activity (using standard luciferase assay substrates and reagents and a Perkin Elmer ViewLux™ ultraHTS microplate imager). […] The inhibitory activity of the compound on luciferase activity was monitored on the Huh-Luc cells, enabling a dose-response curve for each test compound.

HCV NS3/4A protease, sequence (P27958 1027-1657): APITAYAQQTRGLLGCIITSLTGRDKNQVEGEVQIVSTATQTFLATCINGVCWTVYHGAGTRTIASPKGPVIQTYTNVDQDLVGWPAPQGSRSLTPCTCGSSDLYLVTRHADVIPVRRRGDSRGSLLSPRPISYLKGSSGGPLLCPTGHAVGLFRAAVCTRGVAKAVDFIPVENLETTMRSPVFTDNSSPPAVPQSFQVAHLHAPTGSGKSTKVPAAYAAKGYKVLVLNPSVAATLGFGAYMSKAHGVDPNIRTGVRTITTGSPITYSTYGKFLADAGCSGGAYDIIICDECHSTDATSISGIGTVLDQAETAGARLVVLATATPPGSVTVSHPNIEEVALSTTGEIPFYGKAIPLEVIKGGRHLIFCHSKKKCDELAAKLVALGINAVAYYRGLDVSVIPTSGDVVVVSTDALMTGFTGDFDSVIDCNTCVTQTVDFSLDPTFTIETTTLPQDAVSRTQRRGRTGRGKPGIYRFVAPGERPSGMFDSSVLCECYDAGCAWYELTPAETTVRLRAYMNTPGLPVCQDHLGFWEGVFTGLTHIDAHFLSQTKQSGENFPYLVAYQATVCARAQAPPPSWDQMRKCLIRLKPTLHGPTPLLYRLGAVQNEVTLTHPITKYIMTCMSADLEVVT

Structure (SMILES)	Ki [1] [nM]	EC50 [2] [µM]
CN1CCCC/C=C\[C@@H]2C[C@@]2(C(=O)O)NC(=O)[C@@H]2C[C@@H](n3nnc(-c4ccccc4)n3)C[C@H]2C1=O [Compound 9, 17-(5-phenyltetrazol-2-yl)-13-methyl-2,14-dioxo-3,13-diazatricyclo[13.3.0.0^4,6]octadec-7-ene-4-carboxylic acid]	> 1000	> 10
CN1CCCC/C=C\[C@@H]2C[C@@]2(C(=O)NS(=O)(=O)C2CC2)NC(=O)[C@@H]2C[C@@H](n3nnc(-c4ccccc4)n3)C[C@H]2C1=O [Compound 10, N-[17-(5-phenyltetrazol-2-yl)-13-methyl-2,14-dioxo-3,13-diazatricyclo[13.3.0.0^4,6]octadec-7-ene-4-carbonyl](cyclopropyl)sulfonamide]	30	3.43

From patent US8754116B2, “Macrocyclic inhibitors of hepatitis C virus” (Janssen R&D Ireland, priority 2005, dated 2014)
